In the NIST ThermoML archive (doi:10.1016/j.jct.2015.12.017):

Legend:
[1] = Molar enthalpy of transition or fusion
[2] = for molar entropy: 101.33 kPa

O=P([O-])([O-])[O-].[Co+2].[Cs+] [cesium cobalt(II) phosphate]
Settings | Molar enthalpy of transition or fusion, Crystal 2, DSC [kcal/mol] | Molar enthalpy of transition or fusion, Crystal 3, DSC [kcal/mol] | Molar enthalpy of transition or fusion, Crystal 4, Adiabatic calorimetry [kcal/mol] | Triple point temperature, Crystal 2, DSC [K] | Triple point temperature, Crystal 3, DSC [K] | Triple point temperature, Crystal 4, Adiabatic calorimetry [K]
[1] | 0.113 | 0.0824 | 0.00728 | – | – | –
[2] | – | – | – | 514.4 | 486.9 | 313.4

[2]
Settings | molar entropy [J/K/mol]
5 K, Crystal 4, Vacuum adiabatic calorimetry | 0.4864
6 K, Crystal 4, Vacuum adiabatic calorimetry | 0.7965
7 K, Crystal 4, Vacuum adiabatic calorimetry | 1.172
8 K, Crystal 4, Vacuum adiabatic calorimetry | 1.621
9 K, Crystal 4, Vacuum adiabatic calorimetry | 2.062
10 K, Crystal 4, Vacuum adiabatic calorimetry | 2.528
15 K, Crystal 4, Vacuum adiabatic calorimetry | 5.047
20 K, Crystal 4, Vacuum adiabatic calorimetry | 8.117
25 K, Crystal 4, Vacuum adiabatic calorimetry | 11.62
30 K, Crystal 4, Vacuum adiabatic calorimetry | 15.46
35 K, Crystal 4, Vacuum adiabatic calorimetry | 19.44
40 K, Crystal 4, Vacuum adiabatic calorimetry | 23.53
45 K, Crystal 4, Vacuum adiabatic calorimetry | 27.67
50 K, Crystal 4, Vacuum adiabatic calorimetry | 31.83
60 K, Crystal 4, Vacuum adiabatic calorimetry | 40.01
70 K, Crystal 4, Vacuum adiabatic calorimetry | 47.95
80 K, Crystal 4, Vacuum adiabatic calorimetry | 55.65
90 K, Crystal 4, Vacuum adiabatic calorimetry | 63.08
100 K, Crystal 4, Vacuum adiabatic calorimetry | 70.28
110 K, Crystal 4, Vacuum adiabatic calorimetry | 77.27
120 K, Crystal 4, Vacuum adiabatic calorimetry | 84.06
130 K, Crystal 4, Vacuum adiabatic calorimetry | 90.54
140 K, Crystal 4, Vacuum adiabatic calorimetry | 96.95
150 K, Crystal 4, Vacuum adiabatic calorimetry | 103.18
160 K, Crystal 4, Vacuum adiabatic calorimetry | 109.17
170 K, Crystal 4, Vacuum adiabatic calorimetry | 115.16
180 K, Crystal 4, Vacuum adiabatic calorimetry | 120.89
190 K, Crystal 4, Vacuum adiabatic calorimetry | 126.55
200 K, Crystal 4, Vacuum adiabatic calorimetry | 132.03
210 K, Crystal 4, Vacuum adiabatic calorimetry | 137.36
220 K, Crystal 4, Vacuum adiabatic calorimetry | 142.59
230 K, Crystal 4, Vacuum adiabatic calorimetry | 147.75
240 K, Crystal 4, Vacuum adiabatic calorimetry | 152.74
250 K, Crystal 4, Vacuum adiabatic calorimetry | 157.64
260 K, Crystal 4, Vacuum adiabatic calorimetry | 162.55
270 K, Crystal 4, Vacuum adiabatic calorimetry | 167.29
273.15 K, Crystal 4, Vacuum adiabatic calorimetry | 168.78
280 K, Crystal 4, Vacuum adiabatic calorimetry | 171.94
290 K, Crystal 4, Vacuum adiabatic calorimetry | 176.52
298.15 K, Crystal 4, Vacuum adiabatic calorimetry | 180.17
300 K, Crystal 4, Vacuum adiabatic calorimetry | 181.01
310 K, Crystal 4, Vacuum adiabatic calorimetry | 185.5
313.4 K, Crystal 3, Vacuum adiabatic calorimetry | 186.91
313.4 K, Crystal 4, Vacuum adiabatic calorimetry | 186.83
320 K, Crystal 3, Vacuum adiabatic calorimetry | 190.07
330 K, Crystal 3, Vacuum adiabatic calorimetry | 194.48
340 K, Crystal 3, Vacuum adiabatic calorimetry | 198.8
350 K, Crystal 3, Small sample (50 mg) DSC | 203.12
360 K, Crystal 3, Small sample (50 mg) DSC | 207.45
370 K, Crystal 3, Small sample (50 mg) DSC | 211.69
380 K, Crystal 3, Small sample (50 mg) DSC | 215.76
390 K, Crystal 3, Small sample (50 mg) DSC | 219.92
400 K, Crystal 3, Small sample (50 mg) DSC | 223.91
410 K, Crystal 3, Small sample (50 mg) DSC | 227.9
420 K, Crystal 3, Small sample (50 mg) DSC | 231.81
430 K, Crystal 3, Small sample (50 mg) DSC | 235.63
440 K, Crystal 3, Small sample (50 mg) DSC | 239.46
450 K, Crystal 3, Small sample (50 mg) DSC | 243.2
460 K, Crystal 3, Small sample (50 mg) DSC | 246.94
470 K, Crystal 3, Small sample (50 mg) DSC | 250.6
480 K, Crystal 3, Small sample (50 mg) DSC | 254.26
486.9 K, Crystal 2, Small sample (50 mg) DSC | 257.5
486.9 K, Crystal 3, Small sample (50 mg) DSC | 256.83
490 K, Crystal 2, Small sample (50 mg) DSC | 258.58
500 K, Crystal 2, Small sample (50 mg) DSC | 262.16
510 K, Crystal 2, Small sample (50 mg) DSC | 265.65
514.4 K, Crystal 1, Small sample (50 mg) DSC | 267.98
514.4 K, Crystal 2, Small sample (50 mg) DSC | 267.06
520 K, Crystal 1, Small sample (50 mg) DSC | 270.05
530 K, Crystal 1, Small sample (50 mg) DSC | 273.38
540 K, Crystal 1, Small sample (50 mg) DSC | 276.71
550 K, Crystal 1, Small sample (50 mg) DSC | 279.95
560 K, Crystal 1, Small sample (50 mg) DSC | 283.19
570 K, Crystal 1, Small sample (50 mg) DSC | 286.27
580 K, Crystal 1, Small sample (50 mg) DSC | 289.34
590 K, Crystal 1, Small sample (50 mg) DSC | 292.42
600 K, Crystal 1, Small sample (50 mg) DSC | 295.41
610 K, Crystal 1, Small sample (50 mg) DSC | 298.32
620 K, Crystal 1, Small sample (50 mg) DSC | 301.15
630 K, Crystal 1, Small sample (50 mg) DSC | 303.98
640 K, Crystal 1, Small sample (50 mg) DSC | 306.8
650 K, Crystal 1, Small sample (50 mg) DSC | 309.55
